Reference: patent publication US11963533B2 (priority 2017, dated 2024)
Read-outs that look alike come from different tables or passages of the source.

B1: CghSAMPa: stable antimicrobial peptide from Eremocitrus glauca x citrus sp., SEQ ID NO: 1, expressed and purified in E. coli (protein)
chain: MCCNRGKNVSIENLHQGFTHIFESTFESTEGVAEYVSHPSHVEYANLFLANLEKVLVIDYKPTTVRV
B2: CghSAMPb: stable antimicrobial peptide from Eremocitrus glauca x citrus sp., SEQ ID NO: 2, expressed and purified in E. coli (protein)
chain: MCCNRGKNVSIENLHQGFPHLFEFTFESTEGVAEYVSHPAHVEYANLFLANLEKVLVIDYKPTTVRV

Legend:
[1] = test system: C. Las (Candidatus Liberibacter asiaticus); type: in vivo; details: HLB-positive citrus plants, trunk delivery
[2] = test system: C. Lso (Ca. L. solanacearum); type: in vivo, Candidatus Liberibacter solanacearum
[3] = test system: C. Lso (Ca. L. solanacearum); type: in vivo, Candidatus Liberibacter solanacearum; remark: listed apart in the source
sweet orange leaves = details: in vivo
Ca. L. solanacearum = type: in vivo, Candidatus Liberibacter solanacearum; details: 30 μM peptide by stem injection; for growth of infected plants compared to mock treatment: Ca. L. solanacearum-infected Nb plants, 3 weeks of treatment, FIG. 3A; for bacterial titer compared to plants treated with mock solution: Ca. L. solanacearum-infected plants, FIGS. 3B and 7

Molecule	bacteria detected in the treated trees [1]	reduction of bacterial titer of treated trees ([1]; FIG. 4: 100 nM or 10 μM once, 5 weeks)	symptoms of new shoots and leaves from the treated trees ([1]; mock treated plants still have yellow patch symptoms)	disease symptom ([2]; C. Lso-infected potato, FIG. 5)	yield of tuber production ([2]; C. Lso-infected potato, FIG. 5)	plant growth after C. Lso infection ([2]; potato plants pre-treated with SAMP 10 μM vs mock, exposed to C. Lso positive potato psyllids 5 days, 3 weeks post infection)	disease symptom ([3]; C. Lso-infected tomato, FIG. 6)	plant growth after C. Lso infection ([3]; tomato plants pre-treated with SAMP vs mock, exposed to C. Lso positive potato psyllids 5 days, 4 weeks post infection)	cell death in leaves (sweet orange leaves)	time to complete digestion by pepsin (human protease pepsin) [min]	growth of infected plants compared to mock treatment (Ca. L. solanacearum)	bacterial titer compared to plants treated with mock solution (Ca. L. solanacearum)
SAMP	No bacteria were detected	30-100 folds	no longer symptomatic	clearly inhibited	increased	grew better	largely reduced	grew better	No cell death	≤ 45	–	–
B1	–	–	–	–	–	–	–	–	–	–	grow much better	much lower
B2	–	–	–	–	–	–	–	–	–	–	grow much better	much lower
